System: patients with advanced solid tumors
Assay: Treatment-related adverse events (CTCAE v5.0), phase I dose escalation
Format: in vivo
From the text: This study was a single‐arm, dose‐escalation phase I trial conducted in Sun Yat‐sen University Cancer Center in China. This study assessed CVL218 in patients with histologically or cytologically confirmed advanced solid tumors who were in PD after standard therapeutic regimens or lacked standard treatment options. Inclusion criteria included: age 18–75 years; with at least one measurable and evaluable target lesion per Response Evaluation Criteria in Solid Tumors 1.1 (RECIST 1.1); ECOG performance status of 0 or 1; adequate hematological, renal, cardiac, and hepatic functions and a life expectancy ≥12 weeks. Key exclusion criteria included prior usage of PARP inhibitors; allergic to the research drug or its components; with active, unstable systemic diseases or active, uncontrolled infection; a history of other malignancies within 5 years, and pregnant or lactating women.
CVL218 was administered orally, and this dose‐escalation trial included nine dose levels: 100 mg QD (50 mg BID), 200 mg QD (100 mg BID), 400 mg QD (200 mg BID), 700 mg QD (350 mg BID), 1000 mg QD (500 mg BID), 1200 mg QD (600 mg BID), 1400 mg QD (700 mg BID), 1700 mg QD (850 mg BID), and 2000 mg QD (1000 mg BID). Patients enrolled in the study received a single oral dose on the first day, followed by continuous multiple dosing (twice a day taking 12 h apart) after 72 h, with the treatment cycle lasting 4 weeks. The period during which patients received a single dose is designated as cycle 0 (C0), lasting 72 h. After this period, patients begin multiple dosing, referred to as cycle 1 (C1). An initial accelerated titration design was employed for the three lowest dose groups, and the “3+3” design was applied starting with the 300 mg BID cohort.
The primary objectives were to assess safety and tolerability as well as to determine the MTD, DLT, and dose recommended for further study. DLT was defined as any of the following events occurring during cycle 0 (including 72 h wash‐out period after a single dose) and cycle 1 per Common Terminology Criteria for Adverse Events (CTCAE) version 5.0: grade 4 anemia; grade 4 neutropenia; grade 3 neutropenia with fever ≥38.5°C; grade 4 thrombocytopenia; grade 3 thrombocytopenia associated with bleeding; grade ≥2 neurotoxicity; any other grade ≥3 nonhematological toxicities (excluding alopecia). The secondary objectives were to assess the PK and preliminary efficacy of CVL218.
Subjects who received at least one dose of CVL218 with postadministration safety records were included in safety analysis set. Subjects who received at least one dose of CVL218 with at least one evaluable PK parameter were included in PK analysis set. Per‐protocol set were used for efficacy analysis. Descriptive statistics of safety were presented per CTCAE v5.0. The PK parameters T max and T 1/2 were shown as the median (min, max) and mean ± SD, respectively. A two‐sided p < 0.05 was considered to indicate statistical significance. Statistical analysis was performed by using GraphPad prism 8.0.2 and R‐4.3.3.

For `CNCc1ccc(-c2cc3cc(F)cc(C(N)=O)c3o2)cc1.Cl` [CVL218], the Musculoskeletal discomfort (850 mg BID, ≥G3) was 0 n (%), the Musculoskeletal disorders (850 mg BID, ≥G3) was 0 n (%) and the Nausea (850 mg BID, ≥G3) was 0 n (%). For the same molecule, the Nervous system disorders (850 mg BID, ≥G3) was 0 n (%), the Neutrophil count decreased (850 mg BID, ≥G3) was 0 n (%) and the Neutrophil count increased (850 mg BID, ≥G3) was 0 n (%). The Palpitations (850 mg BID, ≥G3) was 0 n (%), the Protein urine present (850 mg BID, ≥G3) was 0 n (%) and the Proteinuria (850 mg BID, ≥G3) was 0 n (%). The Rash (850 mg BID, ≥G3) was 0 n (%), the “Renal & urinary disorders” value (850 mg BID, ≥G3) was 0 n (%) and the Renal failure (850 mg BID, ≥G3) was 0 n (%). The Reproductive disorders (850 mg BID, ≥G3) was 0 n (%), the Skin disorders (850 mg BID, ≥G3) was 0 n (%) and the “Urinary occult blood positive” value (850 mg BID, ≥G3) was 0 n (%). For the same molecule, the Vomiting (850 mg BID, ≥G3) was 0 n (%), the WBC count decreased (850 mg BID, ≥G3) was 0 n (%) and the WBC count increased (850 mg BID, ≥G3) was 0 n (%). For the same molecule, the ALT increased (All (N = 26), ALL) was 4 (15.4) n (%), the AST increased (All (N = 26), ALL) was 2 (7.7) n (%) and the Abdominal distension (All (N = 26), ALL) was 1 (3.8) n (%). The Abdominal pain (All (N = 26), ALL) was 1 (3.8) n (%), the Abdominal pain upper (All (N = 26), ALL) was 1 (3.8) n (%) and the Amylase increased (All (N = 26), ALL) was 2 (7.7) n (%). For the same molecule, the Anemia (All (N = 26), ALL) was 2 (7.7) n (%), the “Any AE related to study drug” value (All (N = 26), ALL) was 26 (100) n (%) and the Asthenia (All (N = 26), ALL) was 2 (7.7) n (%). For the same molecule, the Blood creatinine increased (All (N = 26), ALL) was 5 (19.2) n (%), the Blood system disorders (All (N = 26), ALL) was 2 (7.7) n (%) and the Blood triglycerides increased (All (N = 26), ALL) was 1 (3.8) n (%). The Blood urea increased (All (N = 26), ALL) was 1 (3.8) n (%), the Cardiac disorders (All (N = 26), ALL) was 1 (3.8) n (%) and the Chest discomfort (All (N = 26), ALL) was 2 (7.7) n (%). For the same molecule, the Constipation (All (N = 26), ALL) was 2 (7.7) n (%), the Decreased appetite (All (N = 26), ALL) was 5 (19.2) n (%) and the Diarrhea (All (N = 26), ALL) was 10 (38.5) n (%). For the same molecule, the Dizziness (All (N = 26), ALL) was 3 (11.5) n (%), the Erectile dysfunction (All (N = 26), ALL) was 1 (3.8) n (%) and the Gastrointestinal disorders (All (N = 26), ALL) was 24 (92.3) n (%). The General disorders (All (N = 26), ALL) was 4 (15.4) n (%), the Gingival bleeding (All (N = 26), ALL) was 1 (3.8) n (%) and the Granulocyte count increased (All (N = 26), ALL) was 1 (3.8) n (%). For the same molecule, the Headache (All (N = 26), ALL) was 2 (7.7) n (%), the Hypoalbuminemia (All (N = 26), ALL) was 2 (7.7) n (%) and the Infusion site pain (All (N = 26), ALL) was 1 (3.8) n (%). For the same molecule, the Laboratory test disorders (All (N = 26), ALL) was 15 (57.7) n (%), the Limb discomfort (All (N = 26), ALL) was 1 (3.8) n (%) and the Lipase increased (All (N = 26), ALL) was 6 (23.1) n (%). The Metabolic disorders (All (N = 26), ALL) was 6 (23.1) n (%), the Musculoskeletal discomfort (All (N = 26), ALL) was 1 (3.8) n (%) and the Musculoskeletal disorders (All (N = 26), ALL) was 1 (3.8) n (%). For the same molecule, the Nausea (All (N = 26), ALL) was 20 (76.9) n (%), the Nervous system disorders (All (N = 26), ALL) was 4 (15.4) n (%) and the Neutrophil count decreased (All (N = 26), ALL) was 1 (3.8) n (%). The Neutrophil count increased (All (N = 26), ALL) was 2 (7.7) n (%), the Palpitations (All (N = 26), ALL) was 1 (3.8) n (%) and the Protein urine present (All (N = 26), ALL) was 1 (3.8) n (%). The Proteinuria (All (N = 26), ALL) was 6 (23.1) n (%), the Rash (All (N = 26), ALL) was 3 (11.5) n (%) and the “Renal & urinary disorders” value (All (N = 26), ALL) was 7 (26.9) n (%). The Renal failure (All (N = 26), ALL) was 3 (11.5) n (%), the Reproductive disorders (All (N = 26), ALL) was 1 (3.8) n (%) and the Skin disorders (All (N = 26), ALL) was 3 (11.5) n (%). For the same molecule, the “Urinary occult blood positive” value (All (N = 26), ALL) was 1 (3.8) n (%), the Vomiting (All (N = 26), ALL) was 20 (76.9) n (%) and the WBC count decreased (All (N = 26), ALL) was 1 (3.8) n (%). The WBC count increased (All (N = 26), ALL) was 2 (7.7) n (%), the ALT increased (All (N = 26), ≥G3) was 0 n (%) and the AST increased (All (N = 26), ≥G3) was 0 n (%). The Abdominal distension (All (N = 26), ≥G3) was 0 n (%), the Abdominal pain (All (N = 26), ≥G3) was 1 (3.8) n (%) and the Abdominal pain upper (All (N = 26), ≥G3) was 0 n (%). The Amylase increased (All (N = 26), ≥G3) was 0 n (%), the Anemia (All (N = 26), ≥G3) was 0 n (%) and the “Any AE related to study drug” value (All (N = 26), ≥G3) was 4 (15.4) n (%). The Asthenia (All (N = 26), ≥G3) was 0 n (%), the Blood creatinine increased (All (N = 26), ≥G3) was 3 (11.5) n (%) and the Blood system disorders (All (N = 26), ≥G3) was 0 n (%). For the same molecule, the Blood triglycerides increased (All (N = 26), ≥G3) was 0 n (%), the Blood urea increased (All (N = 26), ≥G3) was 1 (3.8) n (%) and the Cardiac disorders (All (N = 26), ≥G3) was 0 n (%). The Chest discomfort (All (N = 26), ≥G3) was 0 n (%), the Constipation (All (N = 26), ≥G3) was 0 n (%) and the Decreased appetite (All (N = 26), ≥G3) was 0 n (%). For the same molecule, the Diarrhea (All (N = 26), ≥G3) was 0 n (%), the Dizziness (All (N = 26), ≥G3) was 0 n (%) and the Erectile dysfunction (All (N = 26), ≥G3) was 0 n (%). The Gastrointestinal disorders (All (N = 26), ≥G3) was 1 (3.8) n (%), the General disorders (All (N = 26), ≥G3) was 0 n (%) and the Gingival bleeding (All (N = 26), ≥G3) was 0 n (%). The Granulocyte count increased (All (N = 26), ≥G3) was 0 n (%), the Headache (All (N = 26), ≥G3) was 0 n (%) and the Hypoalbuminemia (All (N = 26), ≥G3) was 0 n (%). For the same molecule, the Infusion site pain (All (N = 26), ≥G3) was 0 n (%), the Laboratory test disorders (All (N = 26), ≥G3) was 4 (15.4) n (%) and the Limb discomfort (All (N = 26), ≥G3) was 0 n (%). For the same molecule, the Lipase increased (All (N = 26), ≥G3) was 1 (3.8) n (%), the Metabolic disorders (All (N = 26), ≥G3) was 0 n (%) and the Musculoskeletal discomfort (All (N = 26), ≥G3) was 0 n (%). The Musculoskeletal disorders (All (N = 26), ≥G3) was 0 n (%), the Nausea (All (N = 26), ≥G3) was 0 n (%) and the Nervous system disorders (All (N = 26), ≥G3) was 0 n (%). For the same molecule, the Neutrophil count decreased (All (N = 26), ≥G3) was 0 n (%), the Neutrophil count increased (All (N = 26), ≥G3) was 0 n (%) and the Palpitations (All (N = 26), ≥G3) was 0 n (%). For the same molecule, the Protein urine present (All (N = 26), ≥G3) was 0 n (%), the Proteinuria (All (N = 26), ≥G3) was 0 n (%) and the Rash (All (N = 26), ≥G3) was 0 n (%). For the same molecule, the “Renal & urinary disorders” value (All (N = 26), ≥G3) was 0 n (%), the Renal failure (All (N = 26), ≥G3) was 0 n (%) and the Reproductive disorders (All (N = 26), ≥G3) was 0 n (%). The Skin disorders (All (N = 26), ≥G3) was 0 n (%), the “Urinary occult blood positive” value (All (N = 26), ≥G3) was 0 n (%) and the Vomiting (All (N = 26), ≥G3) was 0 n (%). For the same molecule, the WBC count decreased (All (N = 26), ≥G3) was 0 n (%), the WBC count increased (All (N = 26), ≥G3) was 0 n (%) and the “TRAE of any grade: diarrhea” value (all 26 patients) was 38.5%. The “TRAE of any grade: lipase increased” value (all 26 patients) was 23.1%, the “TRAE of any grade: nausea” value (all 26 patients) was 76.9% and the “TRAE of any grade: proteinuria” value (all 26 patients) was 23.1%. For the same molecule, the “TRAE of any grade: vomiting” value (all 26 patients) was 76.9%, the “patients with ≥grade 3 TRAEs” value (all 26 patients) was 15.4% and the “≥grade 3 TRAE: abdominal pain” value (all 26 patients) was 3.8%. For the same molecule, the “anemia of grade 3 or more severe” value (in vivo) was “None of the anemias were of grade 3 or more severe”, the “grade ≥3 gastrointestinal AEs” value (in vivo) was 3.8% and the “patients with gastrointestinal reactions” value (in vivo) was 92.3%. For the same molecule, the “≥grade 3 TRAE: blood creatinine increased” value (in vivo) was 11.5%, the “≥grade 3 TRAE: blood urea increased” value (in vivo) was 3.8% and the “≥grade 3 TRAE: lipase increased” value (in vivo) was 3.8%.

Reference: PMC12238723, “Phase I Clinical Trial of CVL218, a Novel PARP1/2 Inhibitor, in Patients with Advanced Solid Tumors” (MedComm, 2025)
